# Laboratory results taken from publication PMC8621570, “Mechanistic Studies of Antibiotic Adjuvants Reducing Kidney’s Bacterial Loads upon Systemic Monotherapy” (Pharmaceutics, 2021).
# Where a SMILES comes first, the peptide text is derived from it. [ ]: non-standard residue; d: D form. The star is where a group is joined. Myristoyl = CCCCCCCCCCCCCC(=O)*; 12Ado = NCCCCCCCCCCCC(=O)O
# What was measured:
# [1] = % acetonitrile required for elution in reversed phase HPLC, C18 column; rounded to nearest whole number; reference peptide; cited from earlier work
# From the text: Table 1 Biophysical attributes of relevant lipopeptide analogs. | column: H (%)
# [2] = tested on: washed human erythrocytes; format: cell-based; conditions: red cells of human, 3 h
# Description: Peptide self-assembly was determined by static light scattering measurements as described. Hemolysis was determined by measuring hemoglobin leakage from washed human RBCs, as described. Minimal inhibitory concentration (MIC) was determined using the microdilution assay, as described. Bactericidal kinetics were determined by mixing bacteria with rifampin, OAC, or their combinations, as described. Data were obtained from three independent assays performed in duplicate.
# [3] = light scattering in PBS; reference peptide; cited from earlier work
# From the text: Table 1 Biophysical attributes of relevant lipopeptide analogs. | column: CAC (µM)
# [4] = tested on: 12 GNB strains; conditions: OD measurements, mean of 12 GNB strains, reference peptide; cited from earlier work
# From the text: Table 1 Biophysical attributes of relevant lipopeptide analogs. | column: MIC (µM) / LB ^a Medium
# [5] = tested on: E. coli 25922; format: cell-based, Escherichia coli; conditions: 25922, 24 h
# Description: Sensitization to plasma components was assessed by mixing bacteria with serial two-fold OAC dilutions in 80% human plasma (Israel Blood Bank) or plasma from the specified species (Technion preclinical research authority or VetSource), as described. Data were obtained from three independent experiments.
# Figure 3 Animal plasma antibacterial activities against E. coli 25922. (a) Dose-dependent reduction of colony forming units (CFU) as determined 24 h after exposure to C14(ω5)OOc10O in human plasma (80% final plasma concentration in PBS). Values represent the mean ± SD obtained from three individual plasma donors (mean inoculum was 1.6 ± 0.8 × 10^6 CFU/mL). (b) Time-kill kinetics determined upon E. coli exposure to 0, 2.5, 5, and 10 µM C14(ω5)OOc10O (from top to bottom, respectively). Values represent the mean ± SD obtained from two individual plasma samples, each subjected to two independent assays. Panels (c–f), respectively, show the OAC’s concentration-dependent activities in plasma samples obtained from pig, cat, sheep, and dog. The three dashed horizontal lines respectively represent the average CFU count of the vehicle control (upper line), the inoculum (middle line), and the limit of detection (lower line), i.e., log10 50 CFU/mL = 1.69. Green stars (*) denote lack of detectable CFU.
structure (smiles),measurement,setting,value
CCCCCCCCCCCCCC(=O)N[C@@H](CCCCN)C(=O)N[C@@H](CCCCN)C(=O)NCCCCCCCCCCCC(=O)N[C@@H](CCCCN)C(N)=O [C14KKc12K] (Myristoyl-KK[12Ado]K-NH2),"H, hydrophobicity",[1],55%
same,"HC50, concentration causing 50% hemolysis compared to water",[2],12 ± 1 µM
same,"CAC, critical aggregation concentration",[3],20 ± 5 µM
same,"MIC, LB medium",[4],3 to 6 µM
same,"MIC, human plasma",[5],>20 µM
